Several values for one entry are separate records, joined by “and”; a condition that tells them apart may be missing. Identical values can stand only once.
Experiments:
TRPV1 receptor = TRPV1 receptor (Homo sapiens, UniProt Q8NER1); assay: TRPV1 receptor activity; type: cell-based
Description: “TRPV1 receptor” refers to the Transient Receptor Potential Vanilloid 1 that has been characterized through molecular cloning and pharmacology. See e.g., Caterina M J, et al., Nature 1997; 389:816-824. TRPV1 receptor activity is measured as described in WO2005/120510, hereby incorporated by reference in its entirety.

PRK surgery patients = assay: PRK clinical study, adverse events; type: in vivo, human
Text: Safety assessments consisted of collecting all AEs, SAES, with their severity and relationship to study drug. Only signs and symptoms greater than the listed ranges of either severity or duration were reported as AEs.
(§1) Adverse events and serious adverse events included an assessment of both systemic and ocular assessments. Systemic safety assessments included regular assessments of height and weight, vital signs, reporting medication errors including misuse/abuse, pregnancy reporting and early phase safety monitoring. The misuse/abuse, pregnancy reporting and early phase safety monitoring were not assessed for the study. Ocular safety assessments included the following: • Best-corrected visual acuity (BCVA) and uncorrected visual acuity (UCVA): Was measured at each visit using an ETDRS visual acuity chart at 4 meters (13 feet) or 1 meter (for patients that cannot read the 4 meter chart). The BCVA scoring was done based on the number of correctly read letters plus 30. If visual acuity was so poor that the patient could not read any of the largest letters at 1 meter, count fingers and hand movement vision and light perception was tested. • Intraocular Pressure (TOP): IOP measurements were conducted with applanation tonometry or Tonopen. • Dilated fundus exam: The dilated fundus examination included ophthalmoscopic assessments of the vitreous, retina/macula/choroid, and optic nerve. Evaluations for retinal tear/detachment, retinal hemorrhage, vitreous hemorrhage density, vitreous haze grading and abnormal findings were done and scored according to grading criteria. • Ocular hyperemia: Conjunctival redness of the bulbar conjunctiva in each eye at the slit lamp according to the McMonnies redness scale was graded. […] By adjusting the calibrated slit beam width and height, the maximum horizontal (wound width) and vertical dimensions (wound height) of the surgical epithelial wound was estimated. The evaluation was performed until wound closure and report of wound size as 0 horizontal and 0 vertical dimensions. • Slit-lamp biomicroscopy: Ocular signs (eyelids/conjunctiva, cornea, lens, and iris/anterior chamber) was assessed in both eyes by slit lamp biomicroscopy according to the grading criteria. • Blink rate: A blink was defined as a bilateral paroxysmal closure of the eyelids (duration <1 second) in the absence of a provoking external stimulus. Each blink assessment lasted for 2 min (or as close to 2 minutes as possible with minimum time 1 minute) and the obtained blink rate was averaged to calculate blink rate in blinks/min. • Tear production (Schirmer's test without anesthesia): The test was performed without anesthetic in both eyes simultaneously. Tear secretion was measured in millimeters of the length of strip wetted by tears. […] The strip was wetted with 1 drop of sterile saline and flicked to remove excess saline. The patient blinked several times to ensure dispersion of the dye throughout the tear film prior to grading on a scale of 0-3 (0=Normal, No staining; 1=Mild, Superficial stippling micropunctate staining; 2=Moderate, Macropunctate staining with some coalescent areas and 3=Severe, Numerous coalescent macropunctate areas and/or patches) for each of 5 zones (central plus 4 quadrants).
A total of 18 AEs were reported in 10 patients (25% of the 40 enrolled patients) of which twelve occurred after treatment with compound I, five after treatment with Vehicle and one occurred in one patient prior to dosing of the study drug. All AEs were either mild or moderate in severity.

epithelial wound = assay: PRK clinical study, size of epithelial defect by slit lamp exam; type: in vivo, human
Text: as §1
Size of epithelial defect by slit lamp exam: In order to assess the rate of wound healing after administration of compound I, the size of the epithelial defect in both compound I and Vehicle treated populations was measured. The elliptical area of epithelial wound size was calculated as follows: Area (mm2)=width×height×pi, from the width and height of the epithelial defect measured at the slit lamp. The difference in epithelial wound area between compound I and Vehicle was not noticeably different at any time point except at Day 2 post-PRK surgery (all p-values for the difference in area was >0.35). On Day 2 (24 hours post-operative), the difference in average epithelial defect area between patients treated with compound I vs. Vehicle was 11.23 mm^2 (p value=0.034). This difference was not clinically significant in the immediate post-operative period. […]

[1] = system: postoperative ocular pain in patients undergoing photorefractive keratectomy (PRK) surgery; assay: PRK clinical study, Ocular Pain Assessment Survey (OPAS); type: in vivo, human
Text: The Ocular Pain Assessment Survey (OPAS) is a quantitative, multidimensional questionnaire, specifically designed for assessment of corneal and ocular surface pain and Quality of Life (QoL) changes. The OPAS assesses pain intensity, frequency of eye and non-eye pain, QoL changes, aggravating factors, associated factors, and symptomatic relief quantitative, allowing for monitoring of treatment responses. See Qazi et al., Ophthalmology July 123(7):1458-1468 (2016).
The OPAS is a validated instrument for quantifying and monitoring corneal and ocular surface pain and quality of life, developed in response to an identified need from a National Eye Institute Workshop in 2010. See Qazi et al., Ophthalmology July 123(7):1458-1468 (2016). The rating scale of the overall pain severity in the OPAS from Qazi et al. rated from 0 (no pain) to 10 (severe pain) or for frequency of symptoms from 0% (never) to 100% (all the time), as per the survey. The patients were asked to fill out the OPAS survey/questionnaire at Day 2, Day 4 (at the end of treatment period with study drug) and Day 8. Statistical analysis of OPAS results was not performed.

[2] = First in human study, plasma pharmacokinetics; type: in vivo
Text: Accumulation of compound I at steady-state was minor (˜1.7-fold) following administration of 0.15%, 1.5% or 2.5% suspension 4 times daily and also minor (˜1.3-fold) following 2.5% 8 times daily for 7 days.

[3] = Pharmacokinetic study of exploratory formulations, single bilateral topical ocular dosing; type: in vivo; conditions: NZW rabbits
Description: A pharmacokinetics study was conducted to determine the ocular uptake of compound I following single bilateral topical ocular dosing of male NZW rabbits with the four exploratory formulations provided in Table 2: FID 121522, FID 121511, FID 121512, FID 121513.

Chain of TRPV1 receptor (Q8NER1 whole entry): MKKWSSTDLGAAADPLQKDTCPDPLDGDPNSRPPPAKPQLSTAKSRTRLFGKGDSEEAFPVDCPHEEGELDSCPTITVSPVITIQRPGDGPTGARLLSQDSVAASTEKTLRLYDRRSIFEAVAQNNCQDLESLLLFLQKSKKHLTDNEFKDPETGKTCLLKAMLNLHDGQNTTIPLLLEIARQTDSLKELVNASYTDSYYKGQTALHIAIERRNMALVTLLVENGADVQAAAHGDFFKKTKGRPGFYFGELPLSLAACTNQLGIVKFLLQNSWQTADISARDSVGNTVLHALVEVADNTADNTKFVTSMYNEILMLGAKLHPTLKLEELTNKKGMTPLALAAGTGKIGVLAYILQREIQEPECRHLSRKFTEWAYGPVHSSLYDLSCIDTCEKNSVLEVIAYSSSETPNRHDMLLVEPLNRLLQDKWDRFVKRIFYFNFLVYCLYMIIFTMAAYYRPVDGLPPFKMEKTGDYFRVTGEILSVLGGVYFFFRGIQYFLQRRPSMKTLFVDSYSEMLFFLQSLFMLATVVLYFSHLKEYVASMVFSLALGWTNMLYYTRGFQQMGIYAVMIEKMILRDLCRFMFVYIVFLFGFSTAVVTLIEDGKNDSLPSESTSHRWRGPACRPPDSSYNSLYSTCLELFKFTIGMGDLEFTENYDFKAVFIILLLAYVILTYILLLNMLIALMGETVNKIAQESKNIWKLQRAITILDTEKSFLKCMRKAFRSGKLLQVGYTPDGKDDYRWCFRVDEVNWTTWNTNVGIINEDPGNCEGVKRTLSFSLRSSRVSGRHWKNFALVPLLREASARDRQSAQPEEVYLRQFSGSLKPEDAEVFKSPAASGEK

Question: What does the source list for `CC(C)c1nc2cc(O)ccc2c(=O)n1-c1ccc(C#N)cc1` [Compound I, 4-(7-hydroxy-2-isopropyl-4-oxo-4H-quinazolin-3-yl)-benzonitrile]?
Answer: IC50 (TRPV1 receptor): 30 nM; deaths, SAEs, discontinuations due to AEs (PRK surgery patients; 40 enrolled patients): no deaths or SAEs; eyes (treatment periods) with AEs of moderate severity (PRK surgery patients; five AEs in four patients): four; patients who experienced an AE only during this treatment (PRK surgery patients; human, in vivo): Five; relation of ocular AEs to study drug (PRK surgery patients; human, in vivo): None of the AEs were suspected to be related; patients who developed AEs after treatment (PRK surgery patients; of 40 patients): Eight; number of AEs after treatment (PRK surgery patients; of a total of 18 AEs in 10 patients): twelve; eyes with ocular AEs (mild severity) (PRK surgery patients; six ocular AEs in four patients): three; eyes (treatment periods) with non-ocular AEs (PRK surgery patients; twelve non-ocular AEs in seven patients): six; Epithelial Wound Size, Area, Difference compound I-Vehicle (epithelial wound; Day 1): 2.98 (27.33) mm^2; Epithelial Wound Size, Area, raw mean (SD) (epithelial wound; Day 1): 220.15 (32.26) mm^2; Epithelial Wound Size, Area, Difference compound I-Vehicle (epithelial wound; Day 2): 11.23 mm^2 and 11.23 (32.30) mm^2; Epithelial Wound Size, Area, raw mean (SD) (epithelial wound; Day 2): 83.02 (32.08) mm^2; Epithelial Wound Size, Area, Difference compound I-Vehicle (epithelial wound; Day 3): 1.02 (8.78) mm^2; Epithelial Wound Size, Area, raw mean (SD) (epithelial wound; Day 3): 6.75 (12.66) mm^2; Epithelial Wound Size, Area, Difference compound I-Vehicle (epithelial wound; Day 4): 0.31 (2.11) mm^2; Epithelial Wound Size, Area, raw mean (SD) (epithelial wound; Day 4): 0.39 (2.04) mm^2; Epithelial Wound Size, Area, Difference compound I-Vehicle (epithelial wound; Day 8): 0.00 (0.00) mm^2; Epithelial Wound Size, Area, raw mean (SD) (epithelial wound; Day 8): 0.00 (0.00) mm^2; wound healing compared to Vehicle (epithelial wound; human, in vivo): no delay in wound healing; OPAS eye pain intensity during the previous 24 hours (questions 4, 5, 6) versus Vehicle ([1]; Day 2): all 3 answers numerically favored compound I; OPAS how often eye pain with redness, burning, sensitivity to light, tearing (questions 22-25) versus Vehicle ([1]; human, in vivo): all answers favored compound I; Accumulation at steady-state ([2]; 0.15%, 1.5% or 2.5% suspension 4 times daily): ~1.7 fold; Accumulation at steady-state ([2]; 2.5%, 8 times daily for 7 days): ~1.3 fold; increase in systemic exposure with dose ([2]; increase in dose from 0.15% to 2.5%): less than dose-proportional increase; exposure in cornea relative to aqueous humor and iris-ciliary body [3]: approximately 10 times; Kp ([3]; male, rabbit, cornea / plasma, topical, read-out: exposure in cornea relative to plasma): ~500

From patent publication US20200390767A1, “Formulations of 4-(7-Hydroxy-2-isopropyl-4-oxo-4H-quinazolin-3-yl)-benzonitrile” (NOVARTIS AG, priority 2019, published 2020)
